Reference: patent US20240239806A1, “COMPOUNDS, COMPOSITIONS AND METHODS OF TREATING DISORDERS” (Chengdu Anticancer Bioscience, Ltd., priority 2021, published 2024)

Tests used:
[1] = test system: human lung cancer cell line NCI-H23; test: Soft agar colony formation assay; assay type: cell-based
Excerpt: Measuring the ability of cells to grow in soft agar has been popularly believed as the gold standard assay for cellular transformation in vitro. In the Soft Agar Assay, cells grow from single cells to cell colonies in a semi-solid agar solution that keeps them away from the solid surface and allows growth in an anchorage-independent way.
The anchorage-independent growth of cells is one of the hallmarks of cancer cells. Normal epithelial cells are supported by basement membranes that provide survival and proliferative signals while undergo a type of apoptosis called anoikis when lose their attachment to the extracellular matrix. Cancer cells, in contrast, evade detachment-induced apoptosis, leading to uncontrolled proliferation and metastasis. The Soft Agar Colony Formation Assay allows testing of the therapeutic efficacy of compounds against anchorage-independent 3D growth of cancer cells in vin. The assay was performed in 6-well plates with two layers of agar. For the first, 0.75% agar in DMEM medium was melted in a microwave oven and poured to form a bottom layer. Once solidified, 10-100K cells in 1 ml of DMEM containing 0.35% agar was added to form the top layer, which was later covered with 0.5 ml of DMEM. Cell culture medium was changed once every two days until colonies were ready to photograph. […]

[2] = test system: colon cancer cell line HCT116; test: Soft agar colony formation assay; assay type: cell-based, human

COC(=O)c1cc(Oc2ncnc3cc[nH]c23)cc(C(=O)OC)c1 [Compound 36, dimethyl 5-((5H-pyrrolo[3,2-d]pyrimidin-4-yl)oxy)isophthalate]
growth in soft agar [1]: completely blocked the growth

COC(=O)c1cc(Oc2ncnc3ccsc23)cc(C(=O)OC)c1 [Compound 39, dimethyl 5-(thieno[3,2-d]pyrimidin-4-yloxy)isophthalate]
growth in soft agar [1]: completely blocked the growth

COc1cc(OC)cc(Oc2ccnc3ccccc23)c1 [Compound 7, 4-(3,5-dimethoxyphenoxy)quinoline]
growth in soft agar [2]: suppressed the growth
